In ChEMBL document CHEMBL5532637, “Antimicrobial activity of natural and semi-synthetic carbazole alkaloids” (Eur J Med Chem, 2023):
Converted amounts (≈) assume the structure as drawn.

Key:
HeLa = assay: Cytotoxicity against human HeLa cells incubated for 48 hrs by sulforhodamine B assay; type: functional
A549 = assay: Cytotoxicity against human A549 cells incubated for 48 hrs by sulforhodamine B assay; type: functional
Saccharomyces cerevisiae = assay: Antifungal activity against Saccharomyces cerevisiae ATCC 9763 assessed as inhibition of fungal growth incubated for 24 hrs by microtiter plate reader assay; type: functional
Pichia kudriavzevii [1] = assay: Antifungal activity against Candida krusei ATCC 6258 assessed as inhibition of fungal growth incubated for 24 hrs by microtiter plate reader assay; type: functional
Caulobacter vibrioides = assay: Antibacterial activity against Caulobacter crescentus assessed as inhibition of bacterial growth incubated for 24 hrs; type: functional
Staphylococcus aureus [2] = assay: Antibacterial activity against Staphylococcus aureus assessed as inhibition of bacterial growth incubated for 24 hrs; type: functional
Escherichia coli [3] = assay: Antibacterial activity against Escherichia coli ATCC 25922 assessed as zone of inhibition at 40 ug/ml incubated for 24 hrs by disk diffusion method; type: functional; conditions: read-out: IZ
Bacillus subtilis [4] = assay: Antibacterial activity against Bacillus subtilis ATCC 6633 assessed as zone of inhibition at 40 ug/ml incubated for 24 hrs by disk diffusion method; type: functional; conditions: read-out: IZ
Staphylococcus aureus [5] = assay: Antibacterial activity against Staphylococcus aureus ATCC 6538 assessed as zone of inhibition at 40 ug/ml incubated for 24 hrs by disk diffusion method; type: functional; conditions: read-out: IZ
Klebsiella pneumoniae [6] = assay: Antibacterial activity against Klebsiella pneumoniae ATCC 13883 assessed as zone of inhibition at 40 ug/ml incubated for 24 hrs by disk diffusion method; type: functional; conditions: read-out: IZ
Staphylococcus aureus [7] = assay: Antibacterial activity against Staphylococcus aureus PTCC 1133 assessed as inhibition of bacterial growth by serial dilution assay; type: functional
Escherichia coli [8] = assay: Antibacterial activity against Escherichia coli PTCC 1330 assessed as inhibition of bacterial growth by serial dilution assay; type: functional
Candida albicans [9] = assay: Antimicrobial activity against Candida albicans assessed as zone of inhibition incubated for 24 hrs by agar diffusion method; type: functional
Proteus vulgaris = assay: Antimicrobial activity against Proteus vulgaris NCIM 2813 assessed as zone of inhibition incubated for 24 hrs by agar diffusion method; type: functional
Staphylococcus aureus [10] = assay: Antimicrobial activity against Staphylococcus aureus NCIM 2120 assessed as zone of inhibition incubated for 24 hrs by agar diffusion method; type: functional
Escherichia coli [11] = assay: Antimicrobial activity against Escherichia coli NCIM 2065 assessed as zone of inhibition incubated for 24 hrs by agar diffusion method; type: functional
Pasteurella multocida = assay: Antibacterial activity against Pasteurella multocida assessed as inhibition of bacterial growth by agar well diffusion method; type: functional
Bacillus subtilis [12] = assay: Antibacterial activity against Bacillus subtilis assessed as inhibition of bacterial growth by agar well diffusion method; type: functional
Nakaseomyces glabratus [13] = assay: Antifungal activity against Candida glabrata ATCC 90030 assessed as inhibition of fungal growth incubated for 24 hrs by microtiter plate reader assay; type: functional
Pichia kudriavzevii [14] = assay: Antifungal activity against Candida krusei MTCC 9215 assessed as inhibition of fungal growth by broth microdilution method; type: functional
Pseudomonas aeruginosa [15] = assay: Antibacterial activity against Pseudomonas aeruginosa assessed as inhibition of bacterial growth by broth microdilution method; type: functional
Candida parapsilosis = assay: Antifungal activity against Candida parapsilosis MTCC 7043 assessed as inhibition of fungal growth by broth microdilution method; type: functional; conditions: Lodderomyces parapsilosis
Nakaseomyces glabratus [16] = assay: Antifungal activity against Candida glabrata MTCC 3814 assessed as inhibition of fungal growth by broth microdilution method; type: functional
Staphylococcus aureus [17] = assay: Antibacterial activity against Staphylococcus aureus assessed as inhibition of bacterial growth by broth microdilution method; type: functional
Candida albicans [18] = assay: Antifungal activity against Candida albicans clinical isolate DSY294 assessed as inhibition of fungal growth by broth microdilution method; type: functional
Candida albicans [19] = assay: Antifungal activity against Candida albicans clinical isolate Gu5 assessed as inhibition of fungal growth by broth microdilution method; type: functional
Candida albicans [20] = assay: Antifungal activity against Candida albicans SC5314 assessed as inhibition of fungal growth by broth microdilution method; type: functional
Candida albicans [21] = assay: Antifungal activity against Candida albicans clinical isolate DSY296 assessed as inhibition of fungal growth by broth microdilution method; type: functional
Candida tropicalis = assay: Antifungal activity against Candida tropicalis MTCC 9038 assessed as inhibition of fungal growth by broth microdilution method; type: functional
Candida albicans [22] = assay: Antifungal activity against Candida albicans MTCC 3017 assessed as inhibition of fungal growth by broth microdilution method; type: functional
Klebsiella pneumoniae [23] = assay: Antibacterial activity against Klebsiella pneumoniae assessed as inhibition of bacterial growth by broth microdilution method; type: functional
Escherichia coli [24] = assay: Antibacterial activity against Escherichia coli assessed as inhibition of bacterial growth by broth microdilution method; type: functional
Candida albicans [25] = assay: Antifungal activity against Candida albicans clinical isolate Gu4 assessed as inhibition of fungal growth by broth microdilution method; type: functional
Staphylococcus aureus [26] = assay: Antibacterial activity against Staphylococcus aureus assessed as zone of inhibition incubated for 24 hrs by disk diffusion method; type: functional
Pseudomonas aeruginosa [27] = assay: Antibacterial activity against Pseudomonas aeruginosa assessed as zone of inhibition incubated for 24 hrs by disk diffusion method; type: functional
Bacillus subtilis [28] = assay: Antibacterial activity against Bacillus subtilis NRS-744 assessed as inhibition of bacterial growth incubated for 18 to 24 hrs by microbroth dilution method; type: functional; conditions: time 18-24 hrs
Staphylococcus aureus [29] = assay: Antibacterial activity against Staphylococcus aureus NRRL B-767 assessed as inhibition of bacterial growth incubated for 18 to 24 hrs by microbroth dilution method; type: functional; conditions: time 18-24 hrs
Staphylococcus aureus [30] = assay: Antibacterial activity against methicillin-resistant Staphylococcus aureus assessed as inhibition of bacterial growth incubated for 24 hrs by two-fold serial dilution assay; type: functional
Staphylococcus aureus [31] = assay: Antibacterial activity against methicillin-sensitive Staphylococcus aureus assessed as inhibition of bacterial growth incubated for 24 hrs by two-fold serial dilution assay; type: functional
Salmonella typhimurium = assay: Antimicrobial activity against Salmonella typhimurium assessed as inhibition of microbial growth incubated for 18 to 24 hrs by agar broth microplate assay; type: functional, Salmonella enterica subsp. enterica serovar Typhimurium; conditions: Salmonella enterica; time 18-24 hrs; read-out: MIC100
Candida albicans [32] = assay: Antimicrobial activity against Candida albicans assessed as inhibition of microbial growth incubated for 18 to 24 hrs by agar broth microplate assay; type: functional; conditions: time 18-24 hrs, read-out: MIC100
Staphylococcus aureus [33] = assay: Antimicrobial activity against methicillin-resistant Staphylococcus aureus assessed as inhibition of microbial growth incubated for 18 to 24 hrs by agar broth microplate assay; type: functional; conditions: time 18-24 hrs, read-out: MIC100

CC(C)=CCc1ccc2c([nH]c3cc(O)c(C=O)cc32)c1O
IC (HeLa): 1.91 µg/mL
IC (A549): 5.25 µg/mL

FC(F)(F)Oc1ccc2c3c([nH]c2c1)C(NCc1ccc(Br)cc1)CCC3 (configuration not stated)
MIC50 (Saccharomyces cerevisiae): 1.5 µM (≈ 0.659 µg/mL)
MIC50 (Pichia kudriavzevii [1]): 4.7 µM (≈ 2.06 µg/mL)

OCC(CO)(CO)NCC(O)Cn1c2ccc(Cl)cc2c2cc(Cl)ccc21 (configuration not stated)
MIC (Caulobacter vibrioides): 15 µM (≈ 6.2 µg/mL)
MIC (Staphylococcus aureus [2]): 50 µM (≈ 20.7 µg/mL)

CCn1c2ccccc2c2cc(-c3cc(=O)c4ccccc4o3)ccc21
zone of inhibition at 40 µg/mL (Escherichia coli [3]): 29 mm
zone of inhibition at 40 µg/mL (Bacillus subtilis [4]): 25 mm
zone of inhibition at 40 µg/mL (Staphylococcus aureus [5]): 24 mm
zone of inhibition at 40 µg/mL (Klebsiella pneumoniae [6]): 27 mm

CCC(O)Cn1cc(Cn2c3ccccc3c3ccccc32)nn1 (configuration not stated)
MIC50 (Staphylococcus aureus [7]): 1.56 µg/mL (≈ 4.88 µM)
MIC50 (Escherichia coli [8]): 3.12 µg/mL (≈ 9.75 µM)

Cn1c2ccccc2c2cc(/C=C/C(=O)c3ccc([N+](=O)[O-])cc3)ccc21
inhibition zone (IZ) (Candida albicans [9]): 5 mm
inhibition zone (IZ) (Proteus vulgaris): 4 mm
inhibition zone (IZ) (Staphylococcus aureus [10]): 4.5 mm
inhibition zone (IZ) (Escherichia coli [11]): 2.5 mm

C/C(=N/Nc1ccccc1)C1CCCc2c1n(C)c1c([N+](=O)[O-])cc([N+](=O)[O-])cc21 (configuration not stated)
MIC (Pasteurella multocida): 1.8 µg/mL (≈ 4.42 µM)
MIC (Bacillus subtilis [12]): 1.8 µg/mL (≈ 4.42 µM)

FC(F)(F)Oc1ccc2c3c([nH]c2c1)C(NCCOc1ccc(Cl)cc1)CCC3 (configuration not stated)
MIC50 (Nakaseomyces glabratus [13]): 5.3 µM (≈ 2.25 µg/mL)

COc1cc2c(cc1O)[nH]c1c3c(c(C)cc12)OC(C)(C)C=C3
MIC90 (Pichia kudriavzevii [14]): 12.5 µg/mL (≈ 40.4 µM)
MIC90 (Pseudomonas aeruginosa [15]): > 100 µg/mL
MIC90 (Candida parapsilosis): 12.5 µg/mL (≈ 40.4 µM)
MIC90 (Nakaseomyces glabratus [16]): 12.5 µg/mL (≈ 40.4 µM)
MIC90 (Staphylococcus aureus [17]): 3.12 µg/mL (≈ 10.1 µM)
MIC90 (Candida albicans [18]): 12.5 µg/mL (≈ 40.4 µM)
MIC90 (Candida albicans [19]): 12.5 µg/mL (≈ 40.4 µM)
MIC90 (Candida albicans [20]): 12.5 µg/mL (≈ 40.4 µM)
MIC90 (Candida albicans [21]): 12.5 µg/mL (≈ 40.4 µM)
MIC90 (Candida tropicalis): 12.5 µg/mL (≈ 40.4 µM)
MIC90 (Candida albicans [22]): 12.5 µg/mL (≈ 40.4 µM)
MIC90 (Klebsiella pneumoniae [23]): 3.12 µg/mL (≈ 10.1 µM)
MIC90 (Escherichia coli [24]): > 100 µg/mL
MIC90 (Candida albicans [25]): 12.5 µg/mL (≈ 40.4 µM)

CCOc1nc2c(c(-c3cccs3)c1C(N)=O)CCc1c-2[nH]c2ccc(Cl)cc12
inhibition zone (IZ) (Staphylococcus aureus [26]): 1.1 cm
inhibition zone (IZ) (Pseudomonas aeruginosa [27]): 2.1 cm

CCn1c2ccccc2c2cc(NC(=O)COc3cccc4cccnc34)ccc21
MIC (Bacillus subtilis [28]): 31.2 µg/mL (≈ 79 µM)
MIC (Staphylococcus aureus [29]): 31.2 µg/mL (≈ 79 µM)

N#Cc1ccc2c(c1)[nH]c1c(-c3c[nH]c4ccc(C#N)cc34)ccc(-c3c[nH]c4ccc(C#N)cc34)c12
MIC (Staphylococcus aureus [30]): 8 µg/mL (≈ 16.9 µM)
MIC (Staphylococcus aureus [31]): 16 µg/mL (≈ 33.9 µM)

O=c1[nH]n(-c2ccccc2)c(=O)c2cc3c(cc12)[nH]c1ccc([N+](=O)[O-])cc13
MIC (Salmonella typhimurium): > 512 µg/mL
MIC (Candida albicans [32]): 32 µg/mL
MIC (Staphylococcus aureus [33]): 12 µg/mL
